Measured values published in paper PMC6856039 (Investigational New Drugs, 2019).
Read-outs that look alike come from different tables or passages of the source. Marks after values point to notes of the source that are not given here.

Experimental: PK parameters were evaluated on Day 1 and Day 15.
The planned sample size was 300 patients maximum, including 54 patients in the dose escalation phase, seven patients at each level of the first stage of the expansion phase, 20 patients at each level in the second stage of the expansion phase, and in the extension phase, 100, 40, 20, and 10 patients in Cohorts A, B, C, and D, respectively. The main analysis sets in each study phase are defined in Supplementary Table 1 (Online Resource 3). Safety and efficacy data are summarized using descriptive statistics. PK parameters were calculated according to the non-compartmental method. ORR, DCR, and median PFS were calculated along with 95% CIs. The statistical software used to perform statistical analyses was SAS version 9.2 (SAS Inc., Cary, NC, USA, RRID: SCR_008567). For the PK analysis, Phoenix® WinNonlin® Ver. 6.3 and 6.4 (Certara, Princeton, NJ, USA) was used.

[1] = BID 8 mg/day, cycle 1, day 15, n = 9
[2] = BID 12 mg/day, cycle 1, day 15, n = 4
[3] = QD 4 mg/day, cycle 1, day 15, n = 3
[4] = QD 8 mg/day, cycle 1, day 15, n = 9
[5] = QD 10 mg/day, cycle 1, day 15, n = 7
[6] = QD 12 mg/day, cycle 1, day 15, n = 2
[7] = QD 16 mg/day, cycle 1, day 15, n = 1

C=CC(=O)N[C@H]1CCc2c(-c3cnc4ccccc4c3)c3c(N)ncnc3n2C1 [TAS-121]
AUC0-12h, mean (standard deviation) [1]: 1520 (520) ng•h/mL
Cmax, mean (standard deviation) [1]: 290 (104) ng/mL
T1/2, mean (standard deviation) [1]: 5.11 (1.48) h
Tmax, median (minimum–maximum) [1]: 1.00 (0.50–1.00) h
AUC0-12h, mean (standard deviation) [2]: 5860 (1460) ng•h/mL
Cmax, mean (standard deviation) [2]: 772 (201) ng/mL
T1/2, mean (standard deviation) [2]: 8.84 (3.31) h
Tmax, median (minimum–maximum) [2]: 2.00 (1.00–3.00) h
AUC0-24h, mean (standard deviation) [3]: 2670 (1110) ng•h/mL
Cmax, mean (standard deviation) [3]: 304 (13) ng/mL
T1/2, mean (standard deviation) [3]: 8.83 (2.88) h
Tmax, median (minimum–maximum) [3]: 1.00 (1.00–1.00) h
AUC0-24h, mean (standard deviation) [4]: 4860 (2520) ng•h/mL
Cmax, mean (standard deviation) [4]: 569 (312) ng/mL
T1/2, mean (standard deviation) [4]: 8.60 (2.49) h
Tmax, median (minimum–maximum) [4]: 1.00 (0.50–2.00) h
AUC0-24h, mean (standard deviation) [5]: 8040 (4190) ng•h/mL
Cmax, mean (standard deviation) [5]: 900 (376) ng/mL
T1/2, mean (standard deviation) [5]: 8.61 (1.73) h
Tmax, median (minimum–maximum) [5]: 2.00 (0.75–4.00) h
T1/2 (QD 12 mg/day, cycle 1, day 15, based on one patient): 8.12 (NA)^b h
AUC0-24h, mean [6]: 9500 (NA) ng•h/mL
Cmax, mean [6]: 1180 (NA) ng/mL
Tmax, median (minimum–maximum) [6]: 1.12 (1.00–1.23) h
AUC0-24h [7]: 5870 (NA) ng•h/mL
Cmax [7]: 825 (NA) ng/mL
T1/2 [7]: 6.44 (NA) h
Tmax [7]: 2.00 (NA) h
